Data taken from patent publication US20060276465A1, “1,2-di(cyclic) substituted benzene compounds” (Eisai R&D Management Co., Ltd., priority 2003, published 2006).
Structures can show the parent of a compound that is named as a salt.

Key:
[1] = tested on: human peripheral blood neutrophils; assay: Human peripheral blood neutrophil adhesion system (adhesion to immobilized HUVEC, PMA-stimulated); assay type: cell-based; conditions: 0.75 h, concentration inhibiting by 50% the PMA-stimulated increase in the number of adhered BCECF-AM labeled neutrophils on HUVEC immobilized plate, 45 minutes, 37° C.
Procedure: Evaluation of Compounds in Human Peripheral Blood Neutrophil Adhesion System
<Preparation of Human Peripheral Blood Neutrophils>
To a plastic centrifugation tube containing 100 units of heparin sodium (Shimizu Pharmaceutical) was added 25 ml of fresh blood sampled from a healthy human. After adding and mixing therewith 8 ml of physiological saline (Otsuka Pharmaceutical) containing 6% Dextran (Nacalai), the mixture was allowed to stand at room temperature for 45 minutes for sedimentation of the erythrocytes. The resultant supernatant was transferred to another plastic centrifugation tube and combined with an equivalent volume of phosphate-buffered saline (hereinafter abbreviated as PBS; Sigma), and then centrifuged at 1600 rpm for 7 minutes at room temperature. The obtained hematocyte fraction was suspended in 4 ml of PBS, and the suspension was superposed on 4 ml of Ficoll-Paque™ PLUS (Amersham Biosciences). The resultant bilayer liquid was centrifuged at 2000 rpm for 30 minutes at room temperature, after which the supernatant was removed and the precipitate was suspended in 10 ml of PBS and centrifuged at 1200 rpm for 7 minutes, and the supernatant was removed. The resulting precipitate was suspended in 0.5 ml of PBS again, and then 10 ml of distilled water (Otsuka Pharmaceutical) was added, 0.5 ml of an aqueous solution containing 3 M NaCl was immediately added to restore isotonicity, the mixture was centrifuged at 1200 rpm for 7 minutes, and the obtained precipitate was suspended in PBS containing 1 mg/ml bovine serum albumin (hereinafter abbreviated as BSA; Sigma) again and stored in ice until being used for the experiment.
<Fluorescent Labeling of Human Peripheral Blood Neutrophils>
The obtained neutrophils were suspended in PBS containing 1 mg/ml BSA at 2×10^7 cells/ml. BCECF-AM (Dojin) was added to a final concentration of 5 μM, and the mixture was incubated at 37° C. for 45 minutes. It was then rinsed twice with PBS containing 1 mg/ml BSA by centrifugation, suspended again in PBS containing 1 mg/ml BSA at 5×10^7 cells/ml, and stored in ice until use.
<Preparation of HUVEC Immobilized Plate>
Human umbilical vein endothelial cells (hereinafter abbreviated as HUVEC) were suspended in MCDB131 medium (Chlorella Industries) containing 10% fetal calf serum and 30 μg/ml endothelial cell growth supplement (Becton Dickinson Bioscience). The suspension was added at 7.5×10^3 cells/well to a 96-well plate (Iwaki) immobilized with type I collagen, and cultured for 3 days in a CO2 incubator (Hirasawa). Upon confirming confluency of the cells, the supernatant was discarded, the plate was rinsed twice with PBS, and then PBS containing 0.1% glutaraldehyde (Kanto Kagaku) was added at 100 μl/well and the HUVECs were immobilized for 5 minutes. The supernatant was discarded and the plate was washed twice with PBS, and then PBS was added at 100 μl/well and the mixture was stored at 4° C. until use.
To 6.5 ml of RPMI-1640 medium (Sigma) containing 1 mg/ml of BSA were added 0.5 ml of a suspension of BCECF-AM labeled neutrophils at 5×10^7/ml stored in ice, which was mixed, and the mixture was added at 80 μl/well to a HUVEC immobilized plate. To this plate were immediately added 10 μl/well of a solution of the compound diluted at different concentrations with RPMI-1640 containing 1 mg/ml BSA, and 10 μl/well of 100 nM phorbol myristate acetate (hereinafter abbreviated as PMA; Sigma) in RPMI-1640 containing 1 mg/ml BSA, and the mixture was incubated in a CO2 incubator at 37° C. for 45 minutes. The supernatant was removed from the plate, which was then washed several times with RPMI-1640 at 100 μl/well, and then PBS containing 0.1% NP-40 (Calbiochem) was added thereto at 100 μl/well and the fluorescent intensity was measured with and ARVO™SX 1420 multi label counter (Wallac) to determine the number of adhered cells. […]

Jurkat cells = assay: Jurkat cell adhesion system (adhesion to immobilized human fibronectin, PMA-stimulated); assay type: cell-based; conditions: concentration inhibiting by 50% the PMA-stimulated increase in the number of adhered Jurkat cells on human fibronectin, 45-60 minutes, 37° C.
Procedure: Evaluation of Compounds in Jurkat Cell Adhesion System
<Immobilization of Human Fibronectin in 96-Well Plate>
Human fibronectin (Becton Dickinson Biosciences) was diluted with phosphate-buffered saline (hereinafter abbreviated as PBS; Sigma) to 0.1-0.01 μg/ml, and the diluted solution was added to a 96-well plate (Becton Dickinson) at 50 μl/well, and allowed to stand overnight at 4° C. On the following day, the supernatant was removed from the plate, and then PBS containing 1% bovine serum albumin (hereinafter abbreviated as BSA; Sigma) was added thereto at 100 μl/well and incubation was performed at 37° C. for 2 hours in a CO2 incubator (Hirasawa).
The supernatant was removed from each plate and Jurkat cells suspended in RPMI-1640 (Sigma) containing 1 mg/ml BSA were added at 80 μl/well for 2.5×10^5 cells/well. The compound diluted to different concentrations with RPMI-1640 containing 1 mg/ml BSA was immediately added at 10 μl/well, and then 100 nM phorbol myristate acetate (hereinafter abbreviated as PMA; Sigma) in RPMI-1640 containing 1 mg/ml BSA was added at 10 μl/well and the plate was incubated in a CO2 incubator at 37° C. for 45-60 minutes. The supernatant was removed from the plate and each well was washed several times with 100 μl/well of RPMI-1640, after which 50 mM citrate buffer (pH 5.0) containing 3.75 mM p-nitrophenol-N-acetyl-β-D-glucosaminide (Sigma) and 0.25% Triton X-100 (Sigma) were added at 60 μl/well, and the mixture was placed in a CO2 incubator and incubated at 37° C. for 45 minutes. After incubation, 50 mM glycine buffer (pH 10.4) containing 5 mM EDTA was added at 90 μl/well, and the absorbance at 405 nm was measured with an EL340 Automated Microplate Reader (BIO-TEK) to determine the adhered cell count. The concentration of each compound which inhibited the increase in the number of adhered cells by the PMA-stimulation by 50% was recorded as the IC50 (μM).

Balb/c mice = assay: DSS-induced colitis model; assay type: in vivo; conditions: male Balb/c mice; 1-3% DSS for 5-7 days; 30 mg/kg orally once a day for 5-7 successive days
From the text: Evaluation of Compounds in DSS-Induced Colitis Model
A 1-3% solution of dextran sulfate sodium (hereinafter abbreviated as DSS; ICN) in purified water (Otsuka Pharmaceutical) was fed freely to 6- to 7-week-old male Balb/c mice (Charles River Japan) for 5-7 days to induce colitis. Disease Activity Index (hereinafter abbreviated as DAI) scored based on fecal hardness, blood content in feces and body weight change, the number of neutrophils infiltrating the colon and the length of the colon were used as indexes to evaluate compounds. Each compound was suspended or dissolved in an aqueous solution containing 0.5% methyl cellulose (Wako), and orally administered at 30 mg/kg once a day, for 5-7 successive days.

SMILES | IC50 [1] [µM] | IC50 (Jurkat cells) [µM] | improvement in comparison with the DSS control group (DAI, number of neutrophils infiltrating the colon, length of the colon) (Balb/c mice) | IC50 ([1]; HUVEC) [µM] | IC50 (Jurkat cells; Homo sapiens, Jurkat) [µM]
CCCCCN1CCN(c2cc(OC)ccc2C2CCC(C)(C)CC2)CC1.Cl [Example 1, 1-[2-(4,4-Dimethylcyclohexyl)-5-methoxyphenyl]-4-pentylpiperazine hydrochloride] | 9.1 | 4.5 | particularly good improvement |  | 
CCCN1CCN(c2ccccc2C2CC(C)(C)CC(C)(C)C2)CC1.Cl [Example 31, 1-Propyl-4-[2-(3,3,5,5-tetramethylcyclohexyl)phenyl]piperazine hydrochloride] | 9.5 | 4.5 | particularly good improvement |  | 
CC(C)CN1CCN(c2ccccc2C2=CCC3(CC2)CC3)CC1.Cl [Example 34, 1-Isobutyl-4-(2-spiro[2.5]oct-5-en-6-ylphenyl)piperazine hydrochloride] |  |  | particularly good improvement |  | 
CCCCN1CCN(c2ccccc2/C2=C/CCCCCC2)CC1 [Example 47, 1-Butyl-4-(2-cyclooct-1-enylphenyl)piperazine hydrochloride] |  |  |  | 11.8 | 5
CC1(C)CCC(c2ccccc2N2CCN(Cc3ccoc3)CC2)CC1 [Example 69, 1-[2-(4,4-Dimethylcyclohexyl)phenyl]-4-furan-3-ylmethylpiperazine hydrochloride] | 9.4 | 3.6 |  |  | 
COc1ccc(N2CCN(CC3CCOCC3)CC2)c(C2CC(C)(C)CC(C)(C)C2)c1 [Example 85, 1-[4-Methoxy-2-(3,3,5,5-tetramethylcyclohexyl)phenyl]-4-(tetrahydropyran-4-ylmethyl)piperazine hydrochloride] | 16.4 | 6.4 |  |  | 
CCCCN1CCC(c2ccccc2C2CC(C)(C)CC(C)(C)C2)CC1 [Example 103, 1-Butyl-4-[2-(3,3,5,5-tetramethylcyclohexyl)phenyl]piperidine hydrochloride] | 19.3 | 4.5 |  |  | 
CC1(C)CC(c2ccccc2N2CCN(CC3CC3)CC2)CC(C)(C)C1 [Example 117, 1-Cyclopropylmethyl-4-[2-(3,3,5,5-tetramethylcyclohexyl)phenyl]piperazine methanesulfonate] | 7.1 | 4.7 |  |  | 

The next lines start with results.

IC50 [1] [µM] | IC50 (Jurkat cells) [µM] | SMILES | improvement in comparison with the DSS control group (DAI, number of neutrophils infiltrating the colon, length of the colon) (Balb/c mice) | IC50 ([1]; HUVEC) [µM] | IC50 (Jurkat cells; Homo sapiens, Jurkat) [µM]
12.1 | 2.6 | CCCCN1CCN(c2ccc(N3CCOCC3)cc2C2=CCC(C(C)(C)C)CC2)CC1.Cl (racemic) [Example 18, 4-[3-(4-t-Butylcyclohex-1-enyl)-4-(4-butylpiperazin-1-yl)phenyl]morpholine hydrochloride] | particularly good improvement |  | 
6.1 | 7.7 | COC1CCN(c2ccc(N3CCN(CC4CC4)CC3)c(C3=CCC(C(C)(C)C)CC3)c2)CC1.Cl (racemic) [Example 20, 1-[2-(4-t-Butylcyclohex-1-enyl)-4-(4-methoxypiperidin-1-yl)phenyl]-4-cyclopropylmethylpiperazine hydrochloride] | particularly good improvement |  | 
17.9 | 6.1 | CCC(=O)CN1CCN(c2ccccc2C2CCC(C)(C)CC2)CC1.Cl [Example 17, 1-{4-[2-(4,4-Dimethylcyclohexyl)phenyl]piperazin-1-yl}butan-2-one hydrochloride] | particularly good improvement |  | 
18.1 | 2.2 | CC1(C)C=C(c2ccccc2N2CCN(CC3CCOCC3)CC2)CC(C)(C)C1.Cl [Example 22, 1-(Tetrahydropyran-4-ylmethyl)-4-[2-(3,3,5,5-tetramethylcyclohex-1-enyl)phenyl]piperazine hydrochloride] | particularly good improvement |  | 
8.5 | 3.1 | CCCN1CCN(c2ccc(N3CCOCC3)cc2C2=CC(C)(C)CC(C)(C)C2)CC1.Cl [Example 28, 4-[4-(4-Propylpiperazin-1-yl)-3-(3,3,5,5-tetramethylcyclohex-1-enyl)phenyl]morpholine hydrochloride] | particularly good improvement |  | 
16.9 | 5.5 | CCC(=O)CN1CCN(c2ccc(N3CCOCC3)cc2C2=CCC(CC)(CC)CC2)CC1.Cl [Example 30, 1-{4-[2-(4,4-Diethylcyclohex-1-enyl)-4-morpholin-4-ylphenyl]piperazin-1-yl}butan-2-one hydrochloride] | particularly good improvement |  | 
4.9 | 7.9 | COCCN1CCN(c2ccc(N3CCC(OC)CC3)cc2C2=CCC3(CCCCC3)CC2)CC1 [Example 48, 1-(2-Methoxyethyl)-4-[4-(4-methoxypiperidin-1-yl)-2-spiro[5.5]undec-2-en-3-ylphenyl]piperazine hydrochloride] |  |  | 
